According to ChEMBL document CHEMBL1134054, “p38 kinase inhibitors for the treatment of arthritis and osteoporosis: thienyl, furyl, and pyrrolyl ureas” (Bioorg Med Chem Lett, 2001):

How the values were obtained:
[1] = molecular target: T1, Mitogen-activated protein kinase 14 (Homo sapiens, UniProt Q16539); assay: Percent inhibition determined in vitro against mitogen-activated protein kinase p38 alpha 2 derived from Escherichia coli at 5 uM
[2] = molecular target: T1, Mitogen-activated protein kinase 14; assay: In vitro inhibition of mitogen-activated protein kinase p38 alpha 2 derived from Escherichia coli
SW1353 = assay: Inhibition of IL-6 production by SW1353 cells treated with both cytokines IL-1 and TNF-alpha.; format: functional, cell-based; details: Homo sapiens
[3] = molecular target: T1, Mitogen-activated protein kinase 14; assay: Inhibition of Mitogen-activated protein kinase p38 alpha 2
[4] = molecular target: T1, Mitogen-activated protein kinase 14; assay: Inhibition of p38 alpha-2 kinase

T1 sequence (Q16539 whole entry): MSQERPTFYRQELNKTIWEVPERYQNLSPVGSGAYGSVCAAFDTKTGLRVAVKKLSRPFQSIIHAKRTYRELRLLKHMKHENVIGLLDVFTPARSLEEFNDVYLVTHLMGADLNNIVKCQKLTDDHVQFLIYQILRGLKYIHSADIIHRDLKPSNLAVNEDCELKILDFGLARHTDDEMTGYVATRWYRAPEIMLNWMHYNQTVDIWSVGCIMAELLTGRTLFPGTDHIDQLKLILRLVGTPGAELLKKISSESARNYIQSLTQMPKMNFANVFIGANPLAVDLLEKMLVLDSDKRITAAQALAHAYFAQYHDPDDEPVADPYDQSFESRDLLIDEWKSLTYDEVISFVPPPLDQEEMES

COC(=O)c1sc(C(C)(C)C)cc1NC(=O)Nc1ccc(C(=O)O)cc1 showed an inhibition [1] of 4%.
For COC(=O)c1oc(C(C)(C)C)cc1NC(=O)Nc1ccc(Cl)c(Cl)c1, the IC50 [2] was 1200 nM.
In the case of COC(=O)c1sc(C(C)(C)C)cc1NC(=O)Nc1ccccc1, the IC50 [2] is reported as 290 nM and the inhibition [1] is reported as 68%.
With CNC(=O)c1[nH]c(C(C)(C)C)cc1NC(=O)Nc1ccc(C)cc1 the IC50 [2] was 67 nM and the IC50 (SW1353) was 15 nM.
In the case of COC(=O)c1[nH]c(C(C)(C)C)cc1NC(=O)Nc1cccc(Cl)c1, the IC50 [2] is reported as 27 nM and the inhibition [1] is reported as 95%.
For Cc1ccc(NC(=O)Nc2cc(C(C)(C)C)sc2C(=O)OCCO)cc1, the IC50 [3] was 57 nM.
Compound COC(=O)c1c(NC(=O)Nc2ccccc2)cc(C(C)(C)C)n1C has an IC50 [2] of 947 nM and an inhibition [1] of 32%.
Work on COC(=O)c1[nH]c(C(C)(C)C)cc1NC(=O)Nc1ccc(C)cc1 yielded an IC50 [2] of 33 nM and an IC50 (SW1353) of 1140 nM.
COC(=O)c1oc(C(C)(C)C)cc1NC(=O)Nc1ccc(C)cc1 gave an IC50 [2] of 73 nM and an IC50 (SW1353) of 335 nM.
Work on COC(=O)c1sc(CC(C)C)cc1NC(=O)Nc1ccc(C)cc1 yielded an inhibition [1] of 0%.
Work on COC(=O)c1sc(C(C)(C)C)cc1NC(=O)Nc1ccc(C)cc1 yielded an IC50 [4] of 248 nM, an IC50 (SW1353) of 905 nM and an IC50 [3] of 413 nM. The inhibition [1] was 94%.
In the case of COC(=O)c1c(NC(=O)Nc2cccc3ccccc23)cc(C(C)(C)C)n1C, the IC50 [2] is reported as 253 nM and the inhibition [1] is reported as 67%.
CNC(=O)c1sc(C(C)(C)C)cc1NC(=O)Nc1ccc(F)cc1 gave an IC50 [2] of 88 nM and an inhibition [1] of 80%.
COC(=O)c1sc(C(C)(C)C)cc1NC(=O)Nc1ccc(O)cc1 showed an IC50 [2] of 610 nM and an inhibition [1] of 44%.
Compound COC(=O)c1sc(CCC(C)C)cc1NC(=O)Nc1ccc(C)cc1 has an inhibition [1] of 8%.
Compound COC(=O)c1[nH]c(C(C)(C)C)cc1NC(=O)Nc1ccccc1Cl has an IC50 [2] of 60 nM and an inhibition [1] of 85%.
COC(=O)c1sc(C(C)(C)C)cc1NC(=O)Nc1ccc(NC(C)=O)cc1 was tested, and the inhibition [1] was 23%.
With CNC(=O)c1oc(C(C)(C)C)cc1NC(=O)Nc1ccc(C)cc1 the IC50 [2] was 32 nM.
COC(=O)c1sc(C(C)(C)C)cc1NC(=O)Nc1ccc(C(C)C)cc1 was tested, and the inhibition [1] was 10%.
In the case of COC(=O)c1[nH]c(C(C)(C)C)cc1NC(=O)Nc1ccc(F)cc1, the IC50 [2] is reported as 42 nM, the IC50 (SW1353) is reported as 464 nM and the inhibition [1] is reported as 89%.
For COC(=O)c1[nH]c(C(C)(C)C)cc1NC(=O)Nc1cccc2ccccc12, the IC50 [2] was 12 nM and the IC50 (SW1353) was 309 nM.
Work on COCCOC(=O)c1sc(C(C)(C)C)cc1NC(=O)Nc1ccc(C)cc1 yielded an IC50 [3] of 464 nM.
COC(=O)c1sc(C(C)(C)C)cc1NC(=O)Nc1ccc(Cl)cc1 was tested, and the IC50 [2] was 220 nM and the inhibition [1] was 76%.
COC(=O)c1c(NC(=O)Nc2cccc(Cl)c2Cl)cc(C(C)(C)C)n1C showed an IC50 [2] of 387 nM and an inhibition [1] of 50%.
With COC(=O)c1c(NC(=O)Nc2ccc(F)cc2)cc(C(C)(C)C)n1C the IC50 [2] was 663 nM and the inhibition [1] was 42%.
COC(=O)c1sc([N+](=O)[O-])cc1NC(=O)Nc1ccc(C)cc1 showed an inhibition [1] of 0%.
CNC(=O)c1sc(C(C)(C)C)cc1NC(=O)Nc1ccc(C(C)C)cc1 was tested, and the IC50 [2] was 270 nM and the inhibition [1] was 63%.
Work on COC(=O)c1[nH]c(C(C)(C)C)cc1NC(=O)Nc1ccc(Cl)cc1 yielded an IC50 [2] of 43 nM and an inhibition [1] of 92%.
COC(=O)c1sc(CCc2ccccc2)cc1NC(=O)Nc1ccc(C)cc1 showed an inhibition [1] of 17%.
COC(=O)c1sc(C(C)(C)C)cc1NC(=O)Nc1ccc(OC)cc1 showed an inhibition [1] of 8%.
CNC(=O)c1sc(C(C)(C)C)cc1NC(=O)Nc1ccc(C)cc1 was tested, and the IC50 (SW1353) was 1350 nM and the IC50 [3] was 34 nM.
Cc1ccc(NC(=O)Nc2cc(C(C)(C)C)sc2C(=O)OCCCO)cc1 gave an IC50 [3] of 56 nM.
Work on COC(=O)c1sc(C(C)(C)C)cc1NC(=O)Nc1ccc(C(C)=O)cc1 yielded an inhibition [1] of 21%.
COC(=O)c1sc(C(C)(C)C)cc1NC(=O)Nc1ccc(N)cc1 gave an IC50 [2] of 750 nM and an inhibition [1] of 40%.
Compound COC(=O)c1sc(C(C)(C)C)cc1NC(=O)Nc1ccc(-c2ccccc2)cc1 has an inhibition [1] of 6%.
With COC(=O)c1sc(C(C)C)cc1NC(=O)Nc1ccc(C)cc1 the inhibition [1] was 37%.
Compound Cc1ccc(NC(=O)Nc2cc(C(C)(C)C)sc2C(=O)OC(C)C)cc1 has an IC50 [3] of 741 nM.
COC(=O)c1sc(N)cc1NC(=O)Nc1ccc(C)cc1 was tested, and the IC50 [3] was 441 nM and the inhibition [1] was 90%.
In the case of CCc1ccc(NC(=O)Nc2cc(C(C)(C)C)sc2C(=O)OC)cc1, the IC50 [2] is reported as 660 nM and the inhibition [1] is reported as 40%.
In the case of COC(=O)c1[nH]c(C(C)(C)C)cc1NC(=O)Nc1cccc(Cl)c1Cl, the IC50 [2] is reported as 6 nM, the IC50 (SW1353) is reported as 79 nM and the inhibition [1] is reported as 99%.
Compound CCc1ccc(NC(=O)Nc2cc(C(C)(C)C)sc2C(=O)NC)cc1 has an IC50 [2] of 119 nM and an inhibition [1] of 70%.
COC(=O)c1sc(C(C)(C)C)cc1NC(=O)Nc1cccc(Cl)c1Cl showed an IC50 [2] of 180 nM and an inhibition [1] of 79%.
COC(=O)c1sc(C(C)(C)C)cc1NC(=O)Nc1ccc(F)cc1 gave an IC50 [2] of 830 nM and an inhibition [1] of 35%.
For COC(=O)c1sc(C(C)(C)O)cc1NC(=O)Nc1ccc(C)cc1, the inhibition [1] was 34%.
Compound CCCOC(=O)c1sc(C(C)(C)C)cc1NC(=O)Nc1ccc(C)cc1 has an IC50 [3] of 482 nM.
COC(=O)c1sc(-c2ccccc2)cc1NC(=O)Nc1ccc(C)cc1 showed an inhibition [1] of 0%.
In the case of COC(=O)c1sc(C(C)(C)C)cc1NC(=O)Nc1ccc([N+](=O)[O-])cc1, the inhibition [1] is reported as 16%.
CNC(=O)c1[nH]c(C(C)(C)C)cc1NC(=O)Nc1cccc2ccccc12 was tested, and the IC50 [2] was 28 nM, the IC50 (SW1353) was 35 nM and the inhibition [1] was 96%.
Work on COC(=O)c1oc(C(C)(C)C)cc1NC(=O)Nc1cccc(Cl)c1Cl yielded an IC50 [2] of 32 nM and an inhibition [1] of 97%.
Work on COC(=O)c1[nH]c(C(C)(C)C)cc1NC(=O)Nc1ccccc1 yielded an IC50 [2] of 44 nM.
For CNC(=O)c1[nH]c(C(C)(C)C)cc1NC(=O)Nc1cccc(Cl)c1Cl, the IC50 [2] was 44 nM, the IC50 (SW1353) was 16 nM and the inhibition [1] was 95%.
In the case of COC(=O)c1c(NC(=O)Nc2ccc(C)cc2)cc(C(C)(C)C)n1C, the IC50 [2] is reported as 400 nM.
Compound COC(=O)c1oc(C(C)(C)C)cc1NC(=O)Nc1ccc(F)cc1 has an IC50 [2] of 210 nM and an inhibition [1] of 67%.
CCOC(=O)c1sc(C(C)(C)C)cc1NC(=O)Nc1ccc(C)cc1 gave an IC50 [3] of 3020 nM.
COC(=O)COC(=O)c1sc(C(C)(C)C)cc1NC(=O)Nc1ccc(C)cc1 gave an IC50 [3] of 5310 nM.
